From patent US6365360B1, “Methods of identifying modulators of human IP prostaglandin receptor” (Merck Frosst Canada & Co., priority 1993, dated 2002)

Assays:
[1] = target: T1, human prostaglandin I2 (IP) receptor (Homo sapiens, UniProt P43119); assay: [3H]iloprost competition binding to membranes of pcDNAIamp-hIP transfected COS-M6 cells; conditions: for competition for [3H]iloprost specific binding to the hIP receptor: at a concentration of 30 μM; for IC50: read-out: IC50, competition for [3H]iloprost specific binding, 4 nM [3H]iloprost, COS-M6 membranes, pH 6.0, 45 min at 30° C.
T1 construct: A DNA molecule encoding the full length IP protein has been isolated and purified; expressed in transfected cells; host or cells: COS-M6 cells (membrane fraction), pcDNAIamp-hIP, DEAE-dextran transfection
T1 sequence (P43119 whole entry): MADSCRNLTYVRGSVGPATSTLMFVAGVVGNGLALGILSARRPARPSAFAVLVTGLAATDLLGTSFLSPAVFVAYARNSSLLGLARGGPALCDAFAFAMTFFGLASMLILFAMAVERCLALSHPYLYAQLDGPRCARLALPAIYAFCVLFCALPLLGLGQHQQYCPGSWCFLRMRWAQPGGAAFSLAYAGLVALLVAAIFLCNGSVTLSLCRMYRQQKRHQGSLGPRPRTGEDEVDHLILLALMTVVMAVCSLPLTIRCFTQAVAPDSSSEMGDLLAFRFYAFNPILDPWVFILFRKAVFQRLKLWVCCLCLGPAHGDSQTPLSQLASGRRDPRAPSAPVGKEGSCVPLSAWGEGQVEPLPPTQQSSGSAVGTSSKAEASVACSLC

IP receptor (hIP cDNA) = target: T2, IP receptor (hIP cDNA) (Homo sapiens, UniProt P43119); assay: CFTR-mediated Cl- current in Xenopus oocytes co-injected with pcDNAIamp-IP and pcDNAIamp-CFTR (voltage clamp); type: cell-based; conditions: oocyte clamped at -60 mV, 48 h after injection
T2 construct: A DNA molecule encoding the full length IP protein has been isolated and purified; expressed in transfected cells; host or cells: Xenopus laevis oocytes, nuclear injection of pcDNAIamp-IP plus pcDNAIamp-CFTR
T2 sequence (P43119 whole entry): as above
Experimental: FIG. 5A and 5B —Expression of the prostaglandin 12 receptor in IP cDNA-injected Xenopus oocytes is shown.
(§1) The voltage-clamp experiments shown here were performed 48 hr after nuclear injection and are representative of 6 separate experiments with oocytes from 3 different frogs.
(§2) Oocytes were taken from adult females of Xenopus laevis using standard surgical procedure (Colman, A., 1984 In: Transcription and Translation—A Practical Approach, IRL Press). To remove follicle cells, oocytes were treated for 2-3 h with freshly made collagenase (2 mg/ml, type 2, Worthington Biochemical Corp., Freehold, N.J.) in Ca^2+-free ND96 solution (ND96 in mM: NaCl 96, KCl 2, MgCl2 1, HEPES 5, Na-pyruvate 2.5, theophylline 0.5, gentamicin […], +1.8 CaCl2, pH 7.6). Defolliculated stage 5-6 oocytes were selected and maintained in ND96 solution. Oocyte nuclei were injected with 1.6 ng of pcDNAlamp-IP plus 2.5 ng of pcDNAIamp-CFTR and then incubated at 18° C. for 48 h before challenge with agonist. CFTR (cystic fibrosis transmembrane regulator, a cAMP dependent Cl^− channel) was co-expressed with IP receptor in these oocytes and served as a reporter of changes in intracellular cAMP levels. Functional activity was determined by measurement of Iloprost-induced CFTR-mediated Cl^− current. An oocyte was placed in a 0.5 ml perfusion chamber and voltage clamped at −60 mV (with microelectrodes of 0.5-2.0 MW resistance filled with 3 M KCl) using a Turbo TEC 01C amplifier (NPl Instruments, Germany). Ligand-containing solution was perfused and the current response was recorded.
(§3) This rank order of potency is consistent with that reported for the IP receptor [Coleman, et al., 1990. Comprehensive Medicinal Chemistry (Hansch, C., Sammes, P. G., Taylor, J. B., and Emmett, J. C., Eds) Vol. 3, pp. 643-714, Pergamon, Press, Oxford].

[2] = test system: endogenous IP receptors in oocytes; assay: Control oocytes injected with CFTR cDNA alone (voltage clamp); type: cell-based, Xenopus laevis; conditions: 100 nM
Experimental: The broken line represents the zero current level.
as §1, §2, §3

Compound | competition for [3H]iloprost specific binding to the hIP receptor [1] | CFTR-mediated Cl- current response (IP receptor (hIP cDNA); 100 nM) | current response in control (CFTR alone injected) oocytes [2] | IC50 [1] | CFTR-mediated Cl- current response (IP receptor (hIP cDNA); perfusion of 1-100 nM)
CCCCC[C@H](O)/C=C/[C@H]1C(=O)C[C@H](O)[C@@H]1C/C=C\CCCC(=O)O [PGD2] | essentially inactive | not detectable | no responses |  | 
CCCCC[C@H](O)/C=C/[C@H]1[C@H](O)CC(=O)[C@@H]1C/C=C\CCCC(=O)O [PGE2] |  | not detectable | no responses | ~10 µM | 
CCCCC[C@H](O)/C=C/[C@@H]1[C@@H](C/C=C\CCCC(=O)O)[C@@H](O)C[C@H]1O [PGF2α] |  |  |  | ~10 µM | 
CCCCC[C@H](O)/C=C/[C@@H]1[C@@H](C/C=C\CCCC(=O)O)[C@H]2CO[C@@H]1C2 [U46619] | essentially inactive |  |  |  | 
CC#CCC(C)[C@H](O)/C=C/[C@@H]1[C@H]2C/C(=C/CCCC(=O)O)C[C@H]2C[C@H]1O (stereo partly shown) [iloprost] |  |  | no responses |  | prominent current responses
